According to patent US8716184B2, “Herbicidal composition comprising the hydrates of saflufenacil and glyphosate or glufosinate” (Bayer Cropscience AG, priority 2010, dated 2014):

How the values were obtained:
Format in all cases: in vivo
[1] = system: Digitaria sanguinalis; experiment: Herbicidal action on Digitaria sanguinalis (Table 1)
Protocol: (§1) The herbicidal efficacy of the active compounds or active compound mixtures was scored visually by comparing the treated pots (soil) with untreated controls. The damage and development of all above-ground plant parts was recorded. Scoring was done on a percentage scale (example values: 100% action=all plants dead or not emerged; 50% action=50% of the plants and green plant parts dead or not emerged; 0% action=no discernible action=like control plot). The score figures of in any case 2 repetitions (pots) were averaged.
(§2) When applying the combinations according to the invention, herbicidal effects are frequently observed on a harmful plant species which exceed the formal total of the effects of the herbicides present when these are applied by themselves. Alternatively, it is observed in some cases that a lower application rate is required for the herbicide combination in order to achieve the same effect on a harmful plant species in comparison with the individual products. […] When the data observed already exceed the formal total of the data in the experiments with individual applications, they likewise exceed the expected value according to Colby, which is calculated using the formula below and is likewise regarded as an indication of synergism (cf. S. R. Colby; in Weeds 15 (1967) pp. 20 to 22): E=A+B−(A·B/100)

[2] = system: Cirsium Arvense; experiment: Herbicidal action on Cirsium arvense (Table 2a)
Protocol: as §1, §2

[3] = system: Abutilon teophrastis; experiment: Herbicidal action, dicotyledonous weeds, Abutilon teophrastis (Table 2b); settings: applied at 2-3 leaf stage, scoring 28 days after application
Protocol: as §1
(§3) Seeds or rhizome pieces of monocotyledonous and dicotyledonous weeds are placed in sandy loam in pots, covered with soil and grown in the greenhouse under good growth conditions (temperature, atmospheric humidity, water supply). Three weeks after sowing, the test plants are treated in the three-leaf stage with the compositions according to the invention. The compositions according to the invention, formulated as wettable powders or emulsion concentrates, are sprayed onto the green plant parts in various dosages using an application rate of 300 to 800 L of water/ha (converted). After the test plants have remained in the greenhouse under optimum growth conditions for about 3 to 4 weeks, the effect of the preparations is scored visually in comparison with untreated controls (scoring as in Example 1). […]

[4] = system: Euphorbia heterophylla; experiment: Herbicidal action, dicotyledonous weeds, Euphorbia heterophylla (Table 2b); settings: applied at 2-3 leaf stage, scoring 28 days after application
Protocol: as §1, §3

[5] = system: Xanthium strumarium; experiment: Herbicidal action, dicotyledonous weeds, Xanthium strumarium (Table 2b); settings: applied at 2-3 leaf stage, scoring 28 days after application
Protocol: as §1, §3

[6] = system: Setaria faberii; experiment: Herbicidal action, monocotyledonous weeds, Setaria faberii (Table 2c); settings: applied at 1-2 leaf stage, scoring 28 days after application
Protocol: as §1
as §3, with “Three weeks after sowing, the test plants are treated in the three-leaf stage with the compositions according to the invention.” left out, “1). The compositions according to the invention also have good herbicidal post-emergence action against a broad spectrum of economically important weed grasses and broad-leaf weeds.” for “1).”

[7] = system: Setaria viridis; experiment: Herbicidal action, monocotyledonous weeds, Setaria viridis (Table 2c); settings: applied at 1-2 leaf stage, scoring 28 days after application
Protocol: as §1
as §3, with “Three weeks after sowing, the test plants are treated in the three-leaf stage with the compositions according to the invention.” left out, “1). The compositions according to the invention also have good herbicidal post-emergence action against a broad spectrum of economically important weed grasses and broad-leaf weeds.” for “1).”

[8] = system: Bidens pinata; experiment: Herbicidal action on Bidens pinata (Table 3)
Protocol: as §1, §2

Structure (SMILES): CC(C)N(C)S(=O)(=O)NC(=O)c1cc(-n2c(=O)cc(C(F)(F)F)n(C)c2=O)c(F)cc1Cl [Compound of the formula (I) (amorphous), 2-chloro-5-[3,6-dihydro-3-methyl-2,6-dioxo-4-(trifluoromethyl)-1-(2H)-pyrimidinyl]-4-fluoro-N-[[methyl-(1-methylethyl)amino]sulfonyl]benzamide]
- Herbicidal action [%] on Digitaria sanguinalis ([1]; dose 25 g AS/ha): 0%
- Herbicidal action [%] Cirsium Arvense ([2]; dose 25 g AS/ha): 55%

Structure (SMILES): CP(=O)(O)CCC(N)C(=O)O (centres unmarked) [Glufosinate-ammonium (A2a), glufosinate-ammonium]
- Herbicidal action [%] on Digitaria sanguinalis ([1]; dose 450 g AS/ha): 15%

Structure (SMILES): CC(C)N.O=C(O)CNCP(=O)(O)O [Glyphosate-isopropylammonium (A1b), glyphosate-isopropylammonium]
- Herbicidal action [%] Cirsium Arvense ([2]; dose 675 g AS/ha): 25%
- Herbicidal action [%] Abutilon teophrastis ([3]; dose 100 g AS/ha): 10%
- Herbicidal action [%] Euphorbia heterophylla ([4]; dose 100 g AS/ha): 10%
- Herbicidal action [%] Xanthium strumarium ([5]; dose 100 g AS/ha): 10%
- Herbicidal action [%] Setaria faberii ([6]; dose 100 g AS/ha): 10%
- Herbicidal action [%] Setaria viridis ([7]; dose 100 g AS/ha): 20%
- Herbicidal action [%] Bidens pinata ([8]; dose 100 g AS/ha): 10%

Structure (SMILES): CC(C)N(C)S(=O)(=O)NC(=O)c1cc(-n2c(=O)cc(C(F)(F)F)n(C)c2=O)c(F)cc1Cl [Hydrate of the compound of the formula (I) = (Ba)] [2-chloro-5-[3,6-dihydro-3-methyl-2,6-dioxo-4-(trifluoromethyl)-1-(2H)-pyrimidinyl]-4-fluoro-N-[[methyl-(1-methylethyl)amino]sulfonyl]benzamide]
- Herbicidal action [%] on Digitaria sanguinalis ([1]; dose 25 g AS/ha): 0%
- Herbicidal action [%] Cirsium Arvense ([2]; dose 25 g AS/ha): 45%
- Herbicidal action [%] Abutilon teophrastis ([3]; dose 6.25 g AS/ha): 75%
- Herbicidal action [%] Euphorbia heterophylla ([4]; dose 6.25 g AS/ha): 30%
- Herbicidal action [%] Xanthium strumarium ([5]; dose 6.25 g AS/ha): 30%
- Herbicidal action [%] Setaria faberii ([6]; dose 6.25 g AS/ha): 30%
- Herbicidal action [%] Setaria viridis ([7]; dose 6.25 g AS/ha): 25%
- Herbicidal action [%] Bidens pinata ([8]; dose 6.25 g AS/ha): 40%

Structure (SMILES): COCc1cnc(C2=NC(C)(C(C)C)C(=O)N2)c(C(=O)O)c1 (centres unmarked) [Imazamox (C18), imazamox]
- Herbicidal action [%] Bidens pinata ([8]; dose 0.5 g AS/ha): 0%
- Herbicidal action [%] Bidens pinata ([8]; dose 0.5 g AS/ha, listed as imazamox (C18)): no herbicidal action
